Measurements taken from patent US20200206370A1, “18F-LABELED BISPH[…] PET IMAGING” (University of Southern California, priority 2016, published 2020).

Experiment: MicroPET imaging and organ uptake quantification after tail vein injection in normal nude mice
Format: in vivo, mouse
Experimental: All animal studies were approved by the University of Southern California Institutional Animal Care and Use Committee. Female athymic nude mice (about 4-6 weeks old, with a body weight of 20-25 g) were obtained from Harlan Laboratories (Livermore, Calif.). MicroPET scans were performed using an Inveon microPET scanner (Siemens Medical Solutions, Malvern, Pa., USA). A normal nude mouse was anesthetized using 2% isoflurane and injected with 1.3-2.5 MBq of [^18F]-ClFMBP via tail vein. At 0.5, 1, and 2 h post injection, static emission scans were acquired for 10 min. Raw PET images were reconstructed using 2D ordered subset expectation maximization (OSEM) algorithms with scatter, random and attenuation correction.
The 2D projection of PET images at 2 h post-injection is shown.
Accumulation of [^18F]-ClFMBP in other mouse organs was minimal.

[1] = microPET quantification, 2 h post-injection, tail vein, normal nude mice

## O=P(O)(O)C([18F])(Cl)P(=O)(O)O [[^18F]-ClFMBP, (chloro[^18F]-fluoromethylene)bisphosphonic acid]
0.5, 1 and 2 h post-injection, normal nude mice
  visibility of joints and bones in microPET images: clearly visible with high contrast to contralateral background
microPET images, normal nude mice
  uptake of radioactivity in the bladder: Predominant uptake
microPET quantification, 2 h post-injection
  accumulation in other mouse organs: minimal
[1]
  uptake in bones: 2.72±0.05 % ID/g
  uptake in joints: 2.37±0.08 % ID/g
  uptake in mouse kidneys: 0.16±0.08 % ID/g
  uptake in mouse liver: 0.21±0.04 % ID/g
Suggested by bladder uptake in microPET images
  route of excretion: mainly through the renal system
